Source: ChEMBL document CHEMBL2010722, “Structure-activity relationship study of beta-carboline derivatives as haspin kinase inhibitors” (Bioorg Med Chem Lett, 2012)

Assays:
[1] = system: Liver; assay: Intrinsic clearance in mouse liver microsome at 3 uM; format: ADME; settings: microsomes
[2] = system: Tyrosine-protein kinase ABL1 (Homo sapiens), P00519 [E255K]; assay: Inhibition of ABL E255K mutant at 10 uM
[3] = biological target: Tyrosine-protein kinase receptor UFO (Homo sapiens) (UniProt P30530); assay: Inhibition of AXL at 10 uM
[4] = biological target: Cytoplasmic tyrosine-protein kinase BMX (Homo sapiens) (UniProt P51813); assay: Inhibition of BMX at 10 uM
[5] = biological target: Protein-tyrosine kinase 6 (Homo sapiens) (UniProt Q13882); assay: Inhibition of BRK at 10 uM
[6] = biological target: Tyrosine-protein kinase BTK (Homo sapiens) (UniProt Q06187); assay: Inhibition of BTK at 10 uM
[7] = biological target: Megakaryocyte-associated tyrosine-protein kinase (Homo sapiens) (UniProt P42679); assay: Inhibition of CTK at 10 uM
[8] = biological target: Discoidin domain-containing receptor 2 (Homo sapiens) (UniProt Q16832); assay: Inhibition of DDR2 at 10 uM
[9] = biological target: Ephrin type-A receptor 3 (Homo sapiens) (UniProt P29320); assay: Inhibition of EPHA3 at 10 uM
[10] = biological target: Tyrosine-protein kinase Fes/Fps (Homo sapiens) (UniProt P07332); assay: Inhibition of FES at 10 uM
[11] = biological target: Fibroblast growth factor receptor 4 (Homo sapiens) (UniProt P22455); assay: Inhibition of FGFR4 at 10 uM
Sequence of Fibroblast growth factor receptor 4 (Homo sapiens) (P22455 22-802 limits assumed): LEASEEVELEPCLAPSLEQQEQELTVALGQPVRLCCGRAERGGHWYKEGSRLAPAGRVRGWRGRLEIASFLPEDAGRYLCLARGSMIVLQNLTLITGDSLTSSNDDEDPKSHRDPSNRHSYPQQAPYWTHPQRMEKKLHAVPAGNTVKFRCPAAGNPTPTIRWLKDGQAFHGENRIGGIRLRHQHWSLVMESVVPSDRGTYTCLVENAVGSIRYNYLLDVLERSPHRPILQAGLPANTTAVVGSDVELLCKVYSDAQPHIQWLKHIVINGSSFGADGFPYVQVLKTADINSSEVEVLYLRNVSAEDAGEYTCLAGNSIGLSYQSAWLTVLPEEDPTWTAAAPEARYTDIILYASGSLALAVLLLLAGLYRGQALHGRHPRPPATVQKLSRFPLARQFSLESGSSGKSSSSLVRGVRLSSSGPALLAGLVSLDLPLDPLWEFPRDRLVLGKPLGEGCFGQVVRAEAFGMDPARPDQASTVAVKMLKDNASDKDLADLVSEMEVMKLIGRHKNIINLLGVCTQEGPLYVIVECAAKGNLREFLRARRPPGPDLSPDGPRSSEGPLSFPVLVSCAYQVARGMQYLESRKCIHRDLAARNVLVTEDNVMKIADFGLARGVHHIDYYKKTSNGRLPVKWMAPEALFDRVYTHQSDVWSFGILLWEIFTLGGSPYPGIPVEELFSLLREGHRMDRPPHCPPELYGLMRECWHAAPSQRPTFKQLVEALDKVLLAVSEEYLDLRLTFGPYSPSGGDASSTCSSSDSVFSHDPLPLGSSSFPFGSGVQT

[12] = biological target: Vascular endothelial growth factor receptor 3 (Homo sapiens) (UniProt P35916); assay: Inhibition of FLT4 at 10 uM
[13] = biological target: Insulin-like growth factor 1 receptor (Homo sapiens) (UniProt P08069); assay: Inhibition of IGF1R at 10 uM
[14] = biological target: Tyrosine-protein kinase Lyn (Homo sapiens) (UniProt P07948); assay: Inhibition of LYNa at 10 uM
[15] = biological target: Muscle, skeletal receptor tyrosine-protein kinase (Homo sapiens) (UniProt O15146); assay: Inhibition of MUSK at 10 uM
[16] = biological target: Macrophage-stimulating protein receptor (Homo sapiens) (UniProt Q04912); assay: Inhibition of RON at 10 uM
[17] = Inhibition of SRM at 10 uM
[18] = biological target: Tyrosine-protein kinase Tec (Homo sapiens) (UniProt P42680); assay: Inhibition of TEC at 10 uM
[19] = biological target: Non-receptor tyrosine-protein kinase TNK1 (Homo sapiens) (UniProt Q13470); assay: Inhibition of TNK1 at 10 uM
[20] = biological target: NT-3 growth factor receptor (Homo sapiens) (UniProt Q16288); assay: Inhibition of TRKC at 10 uM
Sequence of NT-3 growth factor receptor (Homo sapiens) (Q16288 32-839 limits assumed): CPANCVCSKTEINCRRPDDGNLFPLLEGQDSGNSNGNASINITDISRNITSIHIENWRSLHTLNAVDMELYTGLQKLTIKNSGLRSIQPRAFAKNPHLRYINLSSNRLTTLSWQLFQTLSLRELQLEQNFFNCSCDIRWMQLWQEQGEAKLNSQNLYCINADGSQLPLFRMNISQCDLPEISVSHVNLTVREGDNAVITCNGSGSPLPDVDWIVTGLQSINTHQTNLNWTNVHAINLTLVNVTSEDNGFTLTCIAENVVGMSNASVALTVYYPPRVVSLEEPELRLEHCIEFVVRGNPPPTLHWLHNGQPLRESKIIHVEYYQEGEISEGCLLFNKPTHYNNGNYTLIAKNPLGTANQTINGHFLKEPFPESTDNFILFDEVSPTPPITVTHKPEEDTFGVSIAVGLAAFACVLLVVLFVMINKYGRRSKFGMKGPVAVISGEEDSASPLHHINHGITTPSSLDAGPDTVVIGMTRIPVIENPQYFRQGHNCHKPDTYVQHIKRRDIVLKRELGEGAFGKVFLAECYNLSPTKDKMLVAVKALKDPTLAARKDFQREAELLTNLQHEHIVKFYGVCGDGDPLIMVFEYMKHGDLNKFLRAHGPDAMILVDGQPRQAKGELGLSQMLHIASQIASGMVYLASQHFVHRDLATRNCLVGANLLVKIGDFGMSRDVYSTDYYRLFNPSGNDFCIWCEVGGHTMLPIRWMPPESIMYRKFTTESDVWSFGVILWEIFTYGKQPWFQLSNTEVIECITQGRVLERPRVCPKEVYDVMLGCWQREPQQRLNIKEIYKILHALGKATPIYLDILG

[21] = biological target: Tyrosine-protein kinase ZAP-70 (Homo sapiens) (UniProt P43403); assay: Inhibition of ZAP70 at 10 uM
[22] = biological target: Serine/threonine-protein kinase BRSK1 (Homo sapiens) (UniProt Q8TDC3); assay: Inhibition of BRSK1 at 10 uM
[23] = biological target: Cyclin-dependent kinase 1/cyclin B1 (Homo sapiens) (UniProt P06493+P14635); assay: Inhibition of CDC2-CycB1 at 10 uM; format: protein-complex assay
[24] = biological target: Casein kinase I isoform delta (Homo sapiens) (UniProt P48730); assay: Inhibition of CK1d at 10 uM
[25] = biological target: Mitogen-activated protein kinase 3 (Homo sapiens) (UniProt P27361); assay: Inhibition of Erk1 at 10 uM
Sequence of Mitogen-activated protein kinase 3 (Homo sapiens) (P27361 whole entry): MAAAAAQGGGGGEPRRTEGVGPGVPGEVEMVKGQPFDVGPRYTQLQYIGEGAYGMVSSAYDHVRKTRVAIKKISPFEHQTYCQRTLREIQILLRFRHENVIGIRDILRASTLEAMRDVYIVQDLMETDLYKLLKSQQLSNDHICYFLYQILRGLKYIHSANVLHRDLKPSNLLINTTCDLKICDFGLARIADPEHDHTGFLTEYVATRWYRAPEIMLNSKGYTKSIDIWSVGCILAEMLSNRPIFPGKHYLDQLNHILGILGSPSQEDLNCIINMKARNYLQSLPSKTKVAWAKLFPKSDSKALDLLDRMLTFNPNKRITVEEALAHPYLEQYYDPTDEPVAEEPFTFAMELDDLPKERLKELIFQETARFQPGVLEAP

[26] = biological target: Mitogen-activated protein kinase kinase kinase kinase 4 (Homo sapiens) (UniProt O95819); assay: Inhibition of HGK at 10 uM
[27] = biological target: Homeodomain-interacting protein kinase 2 (Homo sapiens) (UniProt Q9H2X6); assay: Inhibition of HIPK2 at 10 uM
[28] = biological target: Inhibitor of nuclear factor kappa-B kinase subunit beta (Homo sapiens) (UniProt O14920); assay: Inhibition of IKKb at 10 uM
Sequence of Inhibitor of nuclear factor kappa-B kinase subunit beta (Homo sapiens) (O14920 whole entry): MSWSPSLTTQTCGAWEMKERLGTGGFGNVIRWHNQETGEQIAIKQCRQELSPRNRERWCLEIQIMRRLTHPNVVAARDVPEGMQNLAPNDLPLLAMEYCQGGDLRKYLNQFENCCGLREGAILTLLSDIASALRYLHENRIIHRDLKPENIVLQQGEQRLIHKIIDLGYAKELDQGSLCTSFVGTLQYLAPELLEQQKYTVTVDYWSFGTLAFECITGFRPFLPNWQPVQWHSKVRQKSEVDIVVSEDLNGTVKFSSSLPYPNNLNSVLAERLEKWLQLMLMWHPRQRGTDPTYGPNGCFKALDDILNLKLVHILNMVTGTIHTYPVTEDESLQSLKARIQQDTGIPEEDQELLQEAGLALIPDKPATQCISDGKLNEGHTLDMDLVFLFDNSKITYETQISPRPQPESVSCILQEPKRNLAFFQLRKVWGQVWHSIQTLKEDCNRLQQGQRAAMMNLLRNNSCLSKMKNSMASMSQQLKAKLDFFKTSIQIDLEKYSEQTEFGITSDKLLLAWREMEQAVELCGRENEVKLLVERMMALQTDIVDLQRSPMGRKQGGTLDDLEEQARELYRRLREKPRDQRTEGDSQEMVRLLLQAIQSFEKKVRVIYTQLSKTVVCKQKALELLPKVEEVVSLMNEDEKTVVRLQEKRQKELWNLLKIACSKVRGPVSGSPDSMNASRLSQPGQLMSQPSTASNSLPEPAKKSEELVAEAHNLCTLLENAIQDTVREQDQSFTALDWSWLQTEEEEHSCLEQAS

[29] = biological target: Mitogen-activated protein kinase 8 (Homo sapiens) (UniProt P45983); assay: Inhibition of JNK1 at 10 uM
Sequence of Mitogen-activated protein kinase 8 (Homo sapiens) (P45983 whole entry): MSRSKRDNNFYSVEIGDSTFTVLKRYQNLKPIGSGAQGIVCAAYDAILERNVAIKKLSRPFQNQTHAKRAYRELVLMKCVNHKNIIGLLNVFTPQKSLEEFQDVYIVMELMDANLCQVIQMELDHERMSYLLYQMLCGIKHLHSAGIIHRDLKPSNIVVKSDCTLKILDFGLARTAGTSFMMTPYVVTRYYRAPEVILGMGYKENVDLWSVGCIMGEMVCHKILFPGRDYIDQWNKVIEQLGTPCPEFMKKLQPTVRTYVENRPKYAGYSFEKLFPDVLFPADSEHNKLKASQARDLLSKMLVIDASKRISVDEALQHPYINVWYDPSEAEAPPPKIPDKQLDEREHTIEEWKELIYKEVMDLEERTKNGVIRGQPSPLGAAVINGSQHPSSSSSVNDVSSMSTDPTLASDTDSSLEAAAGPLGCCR

[30] = biological target: Dual specificity mitogen-activated protein kinase kinase 2 (Homo sapiens) (UniProt P36507); assay: Inhibition of MAP2K2 at 10 uM
[31] = biological target: Maternal embryonic leucine zipper kinase (Homo sapiens) (UniProt Q14680); assay: Inhibition of MELK at 10 uM
[32] = biological target: Serine/threonine-protein kinase NIM1 (Homo sapiens) (UniProt Q8IY84); assay: Inhibition of NIM1 at 10 uM
[33] = biological target: MAP kinase-interacting serine/threonine-protein kinase 1 (Homo sapiens) (UniProt Q9BUB5); assay: Inhibition of MNK1 at 10 uM
[34] = biological target: MAP kinase-interacting serine/threonine-protein kinase 2 (Homo sapiens) (UniProt Q9HBH9); assay: Inhibition of MNK2 at 10 uM
[35] = biological target: Serine/threonine-protein kinase 38 (Homo sapiens) (UniProt Q15208); assay: Inhibition of NDR1 at 10 uM
[36] = biological target: Serine/threonine-protein kinase Nek1 (Homo sapiens) (UniProt Q96PY6); assay: Inhibition of NEK1 at 10 uM
[37] = biological target: Mitogen-activated protein kinase 12 (Homo sapiens) (UniProt P53778); assay: Inhibition of p38gamma at 10 uM
[38] = biological target: Ribosomal protein S6 kinase beta-2 (Homo sapiens) (UniProt Q9UBS0); assay: Inhibition of p70S6Kb at 10 uM
[39] = biological target: Serine/threonine-protein kinase PAK 2 (Homo sapiens) (UniProt Q13177); assay: Inhibition of PAK2 at 10 uM
Sequence of Serine/threonine-protein kinase PAK 2 (Homo sapiens) (Q13177 whole entry): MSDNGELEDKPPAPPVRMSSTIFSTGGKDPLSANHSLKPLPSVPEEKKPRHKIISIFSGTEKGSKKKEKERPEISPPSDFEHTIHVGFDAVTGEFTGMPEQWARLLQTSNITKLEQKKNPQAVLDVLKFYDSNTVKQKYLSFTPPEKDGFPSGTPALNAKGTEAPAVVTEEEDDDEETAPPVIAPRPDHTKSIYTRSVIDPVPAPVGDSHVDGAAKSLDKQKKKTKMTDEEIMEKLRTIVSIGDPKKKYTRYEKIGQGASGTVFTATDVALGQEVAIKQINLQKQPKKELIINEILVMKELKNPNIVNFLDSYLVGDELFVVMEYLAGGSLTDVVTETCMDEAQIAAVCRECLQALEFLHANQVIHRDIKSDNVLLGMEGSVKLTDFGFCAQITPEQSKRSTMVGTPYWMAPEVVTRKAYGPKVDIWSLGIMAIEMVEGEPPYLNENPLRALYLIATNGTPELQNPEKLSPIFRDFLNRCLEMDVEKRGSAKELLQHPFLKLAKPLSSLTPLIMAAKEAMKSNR

[40] = biological target: [Pyruvate dehydrogenase (acetyl-transferring)] kinase isozyme 4, mitochondrial (Homo sapiens) (UniProt Q16654); assay: Inhibition of PDHK4 at 10 uM
[41] = biological target: Phosphorylase b kinase gamma catalytic chain, skeletal muscle/heart isoform (Homo sapiens) (UniProt Q16816); assay: Inhibition of PHKG1 at 10 uM
Sequence of Phosphorylase b kinase gamma catalytic chain, skeletal muscle/heart isoform (Homo sapiens) (Q16816 whole entry, looked up, canonical isoform): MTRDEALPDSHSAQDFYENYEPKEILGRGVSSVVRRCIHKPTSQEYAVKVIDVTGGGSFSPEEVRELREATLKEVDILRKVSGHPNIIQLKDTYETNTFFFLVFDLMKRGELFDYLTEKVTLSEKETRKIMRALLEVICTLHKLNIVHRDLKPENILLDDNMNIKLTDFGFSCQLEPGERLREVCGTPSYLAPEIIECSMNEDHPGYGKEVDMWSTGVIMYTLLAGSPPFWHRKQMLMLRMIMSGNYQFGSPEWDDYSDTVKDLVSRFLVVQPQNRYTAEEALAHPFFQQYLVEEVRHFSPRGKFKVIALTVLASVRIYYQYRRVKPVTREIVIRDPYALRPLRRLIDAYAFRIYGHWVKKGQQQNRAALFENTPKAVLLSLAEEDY

[42] = biological target: cAMP-dependent protein kinase catalytic subunit alpha (Homo sapiens) (UniProt P17612); assay: Inhibition of PKACa at 10 uM
[43] = biological target: Protein kinase C alpha type (Homo sapiens) (UniProt P17252); assay: Inhibition of PKCalpha at 10 uM
[44] = biological target: Protein kinase C beta type (Homo sapiens) (UniProt P05771); assay: Inhibition of PKCbeta2 at 10 uM
[45] = biological target: Protein kinase C gamma type (Homo sapiens) (UniProt P05129); assay: Inhibition of PKCgamma at 10 uM
[46] = biological target: Serine/threonine-protein kinase TAO2 (Homo sapiens) (UniProt Q9UL54); assay: Inhibition of TAOK2 at 10 uM
[47] = Inhibition of CDK4/[…] at 10 uM
[48] = biological target: 3-phosphoinositide-dependent protein kinase 1 (Homo sapiens) (UniProt O15530); assay: Inhibition of PDK1 at 10 uM

Q: For COc1ccc2c3ccnc(C(F)(F)F)c3n(CCCCN)c2c1, which CLH [1] is on record?
A: 3.8 µL/min/mg

Q: What about the inhibition [2] of the same compound?
A: 0%

Q: What about the inhibition [3] of the same compound?
A: 34%

Q: What about the inhibition [4] of the same compound?
A: 3%

Q: And the inhibition [5]?
A: 1%

Q: What about the inhibition [6] of the same compound?
A: 0%

Q: And the inhibition [7]?
A: 25%

Q: And the inhibition [8]?
A: 7%

Q: And the inhibition [9]?
A: 0%

Q: What about the inhibition [10] of the same compound?
A: 4%

Q: And the inhibition [11]?
A: 6%

Q: What about the inhibition [12] of the same compound?
A: 9%

Q: What about the inhibition [13] of the same compound?
A: 0%

Q: And the inhibition [14]?
A: 7%

Q: What about the inhibition [15] of the same compound?
A: 42%

Q: What about the inhibition [16] of the same compound?
A: 0%

Q: And the inhibition [17]?
A: 0%

Q: And the inhibition [18]?
A: 2%

Q: And the inhibition [19]?
A: 10%

Q: And the inhibition [20]?
A: 25%

Q: And the inhibition [21]?
A: 3%

Q: What about the inhibition [22] of the same compound?
A: 34%

Q: And the inhibition [23]?
A: 55%

Q: What about the inhibition [24] of the same compound?
A: 93%

Q: And the inhibition [25]?
A: 2%

Q: And the inhibition [26]?
A: 62%

Q: And the inhibition [27]?
A: 53%

Q: And the inhibition [28]?
A: 30%

Q: What about the inhibition [29] of the same compound?
A: 44%

Q: And the inhibition [30]?
A: 6%

Q: And the inhibition [31]?
A: 78%

Q: What about the inhibition [32] of the same compound?
A: 1%

Q: And the inhibition [33]?
A: 37%

Q: What about the inhibition [34] of the same compound?
A: 34%

Q: And the inhibition [35]?
A: 4%

Q: And the inhibition [36]?
A: 5%

Q: And the inhibition [37]?
A: 66%

Q: What about the inhibition [38] of the same compound?
A: 75%

Q: And the inhibition [39]?
A: 13%

Q: What about the inhibition [40] of the same compound?
A: 34%

Q: And the inhibition [41]?
A: 49%

Q: What about the inhibition [42] of the same compound?
A: 28%

Q: And the inhibition [43]?
A: 26%

Q: And the inhibition [44]?
A: 28%

Q: What about the inhibition [45] of the same compound?
A: 22%

Q: And the inhibition [46]?
A: 4%

Q: What about the inhibition [47] of the same compound?
A: 27%

Q: What about the inhibition [48] of the same compound?
A: 0%
